Laboratory results reported in publication PMC2688680, “Identification, expression and characterisation of a Babesia bovis hexose transporter” (Molecular and Biochemical Parasitology, 2008).
Values belong to the molecule of their own block, whether it stands above or below them.

Experiments:
[1] = molecular target: T1, B. bovis hexose transporter 1 (BboHT1) (Babesia bovis, UniProt B0LKY8); assay: radiotracer D-fructose uptake in Xenopus oocytes versus water-injected controls; format: cell-based
T1 construct: full-length, 472 amino acid residues, Israel isolate, expressed in Xenopus laevis oocytes

[2] = molecular target: T1, B. bovis hexose transporter 1 (BboHT1); assay: competition with […]D-glucose uptake in Xenopus oocytes at […] ([…] reduction); format: cell-based
[3] = molecular target: T1, B. bovis hexose transporter 1 (BboHT1); assay: inhibition of […]D-glucose uptake in Xenopus oocytes expressing BboHT1; format: cell-based
[4] = substrate: OC[C@H]1OC(O)[C@H](O)[C@@H](O)[C@@H]1O; assay: radiotracer D-glucose influx kinetics in Xenopus oocytes (Km); format: cell-based, Babesia bovis; details: hydroxyl positions at O-4 and O-6 important for ligand binding

Molecule: OC[C@H]1OC(O)(CO)[C@@H](O)[C@@H]1O (stereo partly drawn) [D-fructose]
radiotracer D-fructose uptake in Xenopus oocytes versus water-injected controls [1]: D-Fructose uptake also increased in oocytes expressing BboHT1 when compared with uptake in water-injected controls

Molecule: OC[C@H]1OC[C@H](O)[C@@H](O)[C@@H]1O [1-DOG, 1-deoxy-D-glucose]
competition with [14C]D-glucose uptake in Xenopus oocytes at 10 mM (>50% reducti) [2]: 1-Deoxy-D-glucose, 2-deoxy-D-glucose, D-mannose (the 2-epimer of glucose), 3-deoxy-D-glucose, and 3-O-methyl-D-glucose all reduced D-glucose uptake via BboHT1

Molecule: OC[C@H]1OC(O)C[C@@H](O)[C@@H]1O (stereo partly drawn) [2-DOG, 2-deoxy-D-glucose]
competition with [14C]D-glucose uptake in Xenopus oocytes at 10 mM (>50% reducti) [2]: 1-Deoxy-D-glucose, 2-deoxy-D-glucose, D-mannose (the 2-epimer of glucose), 3-deoxy-D-glucose, and 3-O-methyl-D-glucose all reduced D-glucose uptake via BboHT1

Ki [3]: 4.1 ± 0.9 µM
Molecule: C=CCCCCCCCCCO[C@H]1[C@H](O)[C@@H](CO)OC(O)[C@@H]1O (stereo partly drawn) [compound 3361, 3-O-(undec-10-en)-yl-D-glucose]

B1: B. bovis hexose transporter 1 (BboHT1) (Babesia bovis) (protein)
chain: MRSYFVYALALGALVAFNFGLNTVSFVASREFAVMDLGWCAGQDKLYECSRASTYSDIIAAGTFIGGAVGSLLIGYFAKFGRRKGMLIIHIINVIGSCMSTSASCFTMFLLGRLIAGVSVGASGVVAIYLSEICTNESRGKFGIVYPLFICIGQFLMVAWQLLHGRILGADNKVVTMDDLKTFDKFVWRMAQFWPVVFSIIAVVIMVFIVTDDTPYVLLNEGKEEEARSVISKLHGEENADAITAELKADIEAQKANSDKLSLLEALKVAQYRKVIFICCGLGIVQQFSGINIFVANASTLFISIMGRTVIANVMGLVGILCLMVTMISLSFFIEKFGRKTLLLAGIFVSSVFMVPAVIIKLAAGKDAKWAEYIMVTGCMGFMVGFAIGLGGVMWLYLAEAMGAEYKDAGFGLATCANWLFAAIVVMTSGMLIKFNENFTYALYAGFGVLGFVYVALLIKETKGIPLGQAYA
notes: full-length, 472 amino acid residues, Israel isolate, expressed in Xenopus laevis oocytes
Km [4]: 840 ± 540 µM
